Measurements published in patent US6645996B1, “Physiologically active substances” (Mercian Corporation and Eisai Co., Ltd., priority 1998, dated 2003).

Columns and labels:
[1] = tested on: Endothelial cells derived from human umbilical vein (HUVEC); experiment: Inhibitory effect of growth of endothelial cells (MTT method); assay type: cell-based; conditions: three days
Procedure: Endothelial cells derived from human umbilical vein (HUVEC; manufactured by Sanko Junyaku) incubated in an EGM medium (manufactured by Sanko Junyaku) were adjusted to 1×10^4 cells/ml and each 100 μl were separately placed on a 96-well plate. After incubating overnight, 100 μl of medium containing sample were added thereto followed by incubating for three days. The cell numbers at that time were measured by MTT method. That is, 50 μl of PBS solution containing 0.33% of 3-(4,5-dimethylthiazol-2-yl)-2,5-diphenyltetrazolium bromide (MTT) was added thereto and incubation was continued for further 3-4 hours. After the supernatant liquid of the culture was removed, 100 μl of DMSO was added to dissolve a formazane which was formed in the cells and the absorbance at the wave length of 460 nm was measured by use of plate reader. The IC50 value is defined as a concentration that the absorbance was 50% of that observed when no sample was added.

[2] = tested on: mouse colon cancer (Colon 38-OT-7); experiment: Anti-metastatic effect: hepatic metastasis of mouse colon cancer transplanted to caecum; assay type: in vivo; conditions: for Toxic death: n 8
Procedure: The mouse colon cancer (Colon 38-OT-7) having a high incidence of the hepatic metastasis was transplanted to the mouse caecum. Then VD1207C was administered intraperitoneallyat each dose of 0.5, 1.0 and 2.0 mg/kg once a day since 12 days after the transplantation.

[3] = Safety of VD1207 analogues, intraperitoneal administration over 4 days; assay type: in vivo; parameters: key to Blood (WBC) / Blood (PLAT) / Biochemistry (UN) / Biochemistry (GPT) / Weight (liver) / Weight (kidney) / Weight (lung) / Weight (spleen) / Body weight / Blood (RBC): —: “-” indicates no abnormality; “↑” and “↓” indicate an increase and a decrease, respectively; “↑” and “↓” indicate an increase and a decrease, respectively
Procedure: Each of VD1207B, C, D, E, F and G2 was continuously administered intraperitoneally at each dose of 1 mg/kg and 2 mg/kg over 4 days to examine the safety of VD1207 analogues.

[4] = tested on: angiogenesis induced by human colorectal cancer (WiDr cells); experiment: Antiangiogenic effect in vivo: chamber with WiDr cells transplanted to mouse, 51Cr-labeled erythrocytes; conditions: 1 mg/kg intraperitoneally once a day for 4 days
Procedure: Whether angiogenesis induced by human colorectal cancer (WiDr cells) was inhibited by administering VD1207C or not was studied to examine the antiangiogenic effect of VD1207C in vivo.
A chamber in which the WiDr cells were sealed was transplanted to a mouse. Then VD1207C was administered intraperitoneally at each dose of 0.5, 1.0 and 2.0 mg/kg for 4 days once a day. The amount of angiogenesis induced by the tumor was measured quantitatively by measuring the radiao activity in the skin touching with the chamber as the amount of blood by statically injecting erythrocytes labeled by ^51Cr. In FIG. 1, vascular volume generated at each dose of VD1207C is shown.

[5] = Solubility (analysis data); assay type: physicochemical
E-selectin = experiment: Inhibition of TNFα-induced expression of adhesion molecule E-selectin on endothelial cells; assay type: cell-based, human; conditions: HUVEC, TNFα 1 ng/ml, 4 hours
Procedure: (§1) Endothelial cells derived from human umbilical vein (HUVEC) were cultured on a 96-well plate until they were fallen in a confluent state. The culture broth was removed. After 150 μl of a new culture broth was added to each well, 20 μl of a sample solution was added thereto. After 15 minutes, 30 μl of TNFα was added such that the final concentration became 1 ng/ml and it was incubated at 37° C. for 4 hours in a 5% CO2 incubator. Next, the culture broth was removed and the cells were washed twice with a phosphate buffer (PBS). Further, a PBS solution containing 0.025% glutaraldehyde was added and the well was allowed to stand at room temperature for 6 minutes to fix the cells. After the cells were immobilized, they were washed twice with 200 μl of phosphate buffer (PBSA) containing 0.25% BSA. Thereafter 100 μl of a PBSA solution containing 1 μg/ml of mouse anti-human VCAM-1 (R&D systems) or a mouse anti-human E-selectin antibody (R&D systems) was added to each well. The well was allowed to stand at room temperature for 30 minutes and then the cells were again washed. A PBSA solution containing 100 μl of peroxidase-conjugated goat anti-mouse antibody (Cosmo Bio Co., Ltd.) was added to the well. Then the well was allowed to stand at room temperature for 30 minutes and thereafter the cells were washed. In succession, 100 μl of 3,3*,5,5*-tetramethylbenzyidine (TMB) substrate solution was added to develop a color. Next, the coloring was stopped by 100 μl of 1M phosphoric acid to measure the absorbance at 450 nm.

aorta pieces of rat = experiment: Inhibition of capillary formation in rat aorta model (aorta pieces cultured in collagen gel); assay type: cell-based; conditions: 7th day from addition of sample
Procedure: In a method of screening the antiangiogenic effect, the degree of inhibition to the formation of lumens observed when an aortic fragment of a rat is cultured in a collagen gel was selected as an indicator (Nicosia R. F., Lab. Invest., 63, 115, 1990). Also, for the purpose of analyzing the mechanism of action of the antiangiogenic effect of the resulting compound, measurements were made concerning the effect of inhibiting the growth of endothelial cells by using endothelial cells derived from the human umbilical cord vein and the effect of inhibiting the expression of an adhesion molecules on endothelial cells.
The antiangiogenic potency was evaluated by the inhibition of capillary formation in rat aorta model in which aorta pieces of rat were cultured in collagen gel. That is, the aorta excised from male rat of Sprague-Dawley strain (8-12 weeks age) was washed with a Hanks' solution so that fat tissues around there were removed minutely. The aorta was incised to prepare pieces of 2 mm square and they were allowed to stand in a 24-well plate holding the endothelial cells upside. Then, 500 μl of neutralized Type I collagen (Cell Matrix Type I-A; manufactured by Nitta Gelatin) were poured over each well and allowed to stand at room temperature for about 20 minutes in a clean bench to solidify the gel. After gelling, 500 μl of MCDB 131 medium (manufactured by Chlorella Kogyo) were added thereto followed by incubating in a Co2 incubator (5% CO2) at 37° C. On the next day, the culture medium was exchanged with 500 μl of MCDB 131 medium containing the sample and the incubation was continued. And, at the stage of the 7th day from the addition of the sample, numbers of capillaries formed around the aorta were counted. The IC50 value of each sample is defined as a concentration that the number of blood capillaries is 50% of that observed when no sample was added.

VCAM-1 = experiment: Inhibition of TNFα-induced expression of adhesion molecule VCAM-1 on endothelial cells; assay type: cell-based, human; conditions: HUVEC, TNFα 1 ng/ml, 4 hours
Procedure: as §1

[6] = 1 mg/kg i.p. 4 days, listed as C
[7] = 2 mg/kg i.p. 4 days, listed as C
[8] = 2 mg/kg i.p. 4 days, listed as E

CCCC(C(=O)c1cc(C(OC)C(C)C)c(O)c(C=O)c1O)C1CC(O)C2(OC2CC)C(O)O1 (single isomer, unassigned) [VD1207 C]
IC50 (growth of endothelial cells, absorbance 50% of no sample) ([1]; listed as C): 0.08 µg/mL
Hepatic metastasis incidence ([2]; 0.5 mg/kg i.p. once a day): 5/7
No. of metastatic nodules (mean ± STD) ([2]; 0.5 mg/kg i.p. once a day): (9.7 ± 12.2)
No. of metastatic nodules, median ([2]; 0.5 mg/kg i.p. once a day): 1.0
Toxic death ([2]; 0.5 mg/kg i.p. once a day): 1
Hepatic metastasis incidence ([2]; 1.0 mg/kg i.p. once a day): 3/6
No. of metastatic nodules (mean ± STD) ([2]; 1.0 mg/kg i.p. once a day): (1.2 ± 1.6)
No. of metastatic nodules, median ([2]; 1.0 mg/kg i.p. once a day): 0.5
Toxic death ([2]; 1.0 mg/kg i.p. once a day): 2
Hepatic metastasis incidence ([2]; 2.0 mg/kg i.p. once a day): 0/5
No. of metastatic nodules (individual animals) ([2]; 2.0 mg/kg i.p. once a day): no metastatic nodules was observed at all
No. of metastatic nodules, median ([2]; 2.0 mg/kg i.p. once a day): 0
Toxic death ([2]; 2.0 mg/kg i.p. once a day): 3
Number of the metastatic nodules ([2]; dose ranging from 0.5 mg/kg): decreased the number of the metastatic nodules
Weight of each of the liver, kidney and lung (autoptic findings) ([3]; 1 mg/kg and 2 mg/kg i.p. 4 days): increase
Biochemistry (GPT) ([3]; 1 mg/kg i.p. 4 days): —
Biochemistry (UN) ([3]; 1 mg/kg i.p. 4 days): —
Blood (PLAT) ([3]; 1 mg/kg i.p. 4 days): —
Blood (RBC) ([3]; 1 mg/kg i.p. 4 days): —
Blood (WBC) ([3]; 1 mg/kg i.p. 4 days): —
Body weight ([3]; 1 mg/kg i.p. 4 days): —
Change in weight (FIGS. 2a and 2b) ([3]; 1 mg/kg i.p. 4 days): inhibition to an increase in weight
Weight (liver) ([3]; 1 mg/kg i.p. 4 days): ↑
Weight (spleen) ([3]; 1 mg/kg i.p. 4 days): —
Weight (kidney) [3, 6]: ↑
Weight (lung) [3, 6]: ↑
Change in weight (FIGS. 2a and 2b) ([3]; 2 mg/kg i.p. 4 days): reduction in weight
Blood (PLAT) [3, 7]: ↓
Body weight [3, 7]: ↓
Weight (kidney) [3, 7]: ↑
Weight (lung) [3, 7]: ↑
Angiogenesis induced by WiDr cells (vascular volume) [4]: inhibited with a significant difference
Solubility in ethyl acetate, chloroform and dimethyl sulfoxide [5]: soluble
Solubility in neutral water [5]: insoluble
E-select (IC50 of expression) (E-selectin; listed as C): 1.23 µg/mL
IC50 (number of blood capillaries 50% of that without sample) (aorta pieces of rat; listed as C): 0.050 µg/mL
VCAM-1 (IC50 of expression) (VCAM-1; listed as C): 0.85 µg/mL

CCC1OC12C(O)CC(C(CC(C)C)C(=O)c1cc(C(OC)C(C)C)c(O)c(C=O)c1O)OC2O (single isomer, unassigned) [VD1207 E]
IC50 (growth of endothelial cells, absorbance 50% of no sample) ([1]; listed as E): 0.21 µg/mL
Biochemistry (GPT) ([3]; 1 mg/kg i.p. 4 days): —
Biochemistry (UN) ([3]; 1 mg/kg i.p. 4 days): —
Blood (PLAT) ([3]; 1 mg/kg i.p. 4 days): —
Blood (RBC) ([3]; 1 mg/kg i.p. 4 days): —
Blood (WBC) ([3]; 1 mg/kg i.p. 4 days): —
Body weight ([3]; 1 mg/kg i.p. 4 days): —
Weight (liver) ([3]; 1 mg/kg i.p. 4 days): ↑
Weight (lung) ([3]; 1 mg/kg i.p. 4 days): —
Weight (spleen) ([3]; 1 mg/kg i.p. 4 days): —
Weight (kidney) ([3]; 1 mg/kg i.p. 4 days, listed as E): —
Blood (WBC) ([3]; 2 mg/kg i.p. 4 days): ↓
Weight (kidney) [3, 8]: —
Weight (lung) [3, 8]: —
Solubility in ethyl acetate, chloroform and dimethyl sulfoxide [5]: soluble
Solubility in neutral water [5]: insoluble
E-select (IC50 of expression) (E-selectin; listed as E): 4.44 µg/mL
IC50 (number of blood capillaries 50% of that without sample) (aorta pieces of rat; listed as E): 0.047 µg/mL
VCAM-1 (IC50 of expression) (VCAM-1; listed as E): 2.59 µg/mL
